{"source": "patent US8952024B2", "about": "“Herbicidal pyrimidone derivatives” (E I du Pont de Nemours and Company, priority 2009, dated 2015)", "assay_type_in_all_cases": "in vivo", "key": {"[1]": {"system": "pigweed (Amaranthus retroflexus)", "experiment": "Test B pre-/postemergence plant response", "in_short": "(§1)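 Response scores were assigned visually after 13 to 15 days in a greenhouse, comparing treated pots with controls on a 0–100 scale where 100 denotes complete control. Preemergence treatments went onto freshly seeded loam/sand soil; postemergence treatments onto plants 2 to 18 cm tall.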"}, "[2]": {"system": "goosegrass (Eleusine indica)", "experiment": "Test B pre-/postemergence plant response", "in_short": "as §1"}, "[3]": {"system": "lambsquarters (Chenopodium album)", "experiment": "Test B pre-/postemergence plant response", "in_short": "as §1"}, "[4]": {"system": "green foxtail (Setaria viridis)", "experiment": "Test B pre-/postemergence plant response", "in_short": "as §1"}, "soybean (Glycine max)": {"system": "soybean (Glycine max)", "experiment": "Test B pre-/postemergence plant response", "settings": "for Plant response rating, Soybean: Postemergence, scale 0 to 100 (0 no effect, 100 complete control)", "in_short": "as §1"}, "[5]": {"system": "velvetleaf (Abutilon theophrasti)", "experiment": "Test B pre-/postemergence plant response", "settings": "for Plant response rating, Velvetleaf: Postemergence, scale 0 to 100 (0 no effect, 100 complete control)", "in_short": "as §1"}, "[6]": {"system": "yellow nutsedge (Cyperus esculentus)", "experiment": "Test B pre-/postemergence plant response", "in_short": "as §1"}, "[7]": {"system": "johnsongrass (Sorghum halepense)", "experiment": "Test B pre-/postemergence plant response", "in_short": "as §1"}, "corn (Zea mays)": {"system": "corn (Zea mays)", "experiment": "Test B pre-/postemergence plant response", "in_short": "as §1"}, "[8]": {"system": "giant foxtail (Setaria faberii)", "experiment": "Test B pre-/postemergence plant response", "in_short": "as §1"}, "[9]": {"system": "winter barley (Hordeum vulgare)", "experiment": "Test B postemergence plant response", "in_short": "(§2)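 Visual ratings from 0 (no effect) to 100 (complete control), made against controls 13–15 days after treatment, kept in a greenhouse. Compounds were applied postemergence to potted plants at the 1- to 4-leaf stage (2–18 cm).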"}, "[10]": {"system": "canarygrass (Phalaris minor)", "experiment": "Test B postemergence plant response", "in_short": "as §2"}, "[11]": {"system": "windgrass (Apera spica-venti)", "experiment": "Test B postemergence plant response", "in_short": "as §2"}, "[12]": {"system": "chickweed (Stellaria media)", "experiment": "Test B postemergence plant response", "in_short": "as §2"}, "[13]": {"settings": "31 g ai/ha, postemergence, scale 0 to 100, 0 is no effect, 100 is complete control"}, "[14]": {"settings": "62 g ai/ha, postemergence, 0 is no effect, 100 is complete control, 13 to 15 days"}, "[15]": {"settings": "Postemergence, 250 g ai/ha, scale 0 to 100 (0 no effect, 100 complete control)"}, "[16]": {"settings": "Postemergence, 125 g ai/ha, scale 0 to 100 (0 no effect, 100 complete control)"}}, "data": [{"smiles": "COCCn1c(-c2cccc(C)c2)ncc(C(=O)C2=C(O)CCCC2=O)c1=O", "note": "[Compound 117]", "values": [{"measurement": "Plant response rating, Pigweed", "setting": "[1]; [13]", "value": 95}, {"measurement": "Pigweed plant response rating (0 to 100 scale)", "setting": "[1]; [14]", "value": 98}, {"measurement": "Plant response rating, Pigweed", "setting": "[1]; [15]", "value": 100}, {"measurement": "Plant response rating, Goosegrass", "setting": "[2]; [13]", "value": 45}, {"measurement": "Goosegrass plant response rating (0 to 100 scale)", "setting": "[2]; [14]", "value": 75}, {"measurement": "Plant response rating, Goosegrass", "setting": "[2]; [16]", "value": 75}, {"measurement": "Plant response rating, Goosegrass", "setting": "[2]; [15]", "value": 85}, {"measurement": "Plant response rating, Lambsquarters", "setting": "[3]; [13]", "value": 95}, {"measurement": "Lambsquarters plant response rating (0 to 100 scale)", "setting": "[3]; [14]", "value": 98}, {"measurement": "Plant response rating, Lambsquarters", "setting": "[3]; [16]", "value": 100}, {"measurement": "Plant response rating, Lambsquarters", "setting": "[3]; [15]", "value": 100}, {"measurement": "Plant response rating, Foxtail, Green", "setting": "[4]; [13]", "value": 50}, {"measurement": "Foxtail, Green plant response rating (0 to 100 scale)", "setting": "[4]; [14]", "value": 70}, {"measurement": "Plant response rating, Foxtail, Green", "setting": "[4]; [16]", "value": 80}, {"measurement": "Plant response rating, Foxtail, Green", "setting": "[4]; [15]", "value": 95}, {"measurement": "Soybean plant response rating (0 to 100 scale)", "setting": "soybean (Glycine max); [14]", "value": 80}, {"measurement": "Plant response rating, Soybean", "setting": "soybean (Glycine max); 125 g ai/ha", "value": 95}, {"measurement": "Plant response rating, Soybean", "setting": "soybean (Glycine max); 250 g ai/ha", "value": 95}, {"measurement": "Velvetleaf plant response rating (0 to 100 scale)", "setting": "[5]; [14]", "value": 85}, {"measurement": "Plant response rating, Velvetleaf", "setting": "[5]; 125 g ai/ha", "value": 95}, {"measurement": "Plant response rating, Velvetleaf", "setting": "[5]; 250 g ai/ha", "value": 100}, {"measurement": "Plant response rating, Nutsedge, Yellow", "setting": "[6]; [13]", "value": 0}, {"measurement": "Nutsedge, Yellow plant response rating (0 to 100 scale)", "setting": "[6]; [14]", "value": 0}, {"measurement": "Plant response rating, Nutsedge, Yellow", "setting": "[6]; [16]", "value": 25}, {"measurement": "Plant response rating, Nutsedge, Yellow", "setting": "[6]; [15]", "value": 35}, {"measurement": "Plant response rating, Johnsongrass", "setting": "[7]; [13]", "value": 5}, {"measurement": "Johnsongrass plant response rating (0 to 100 scale)", "setting": "[7]; [14]", "value": 20}, {"measurement": "Plant response rating, Johnsongrass", "setting": "[7]; [15]", "value": 25}, {"measurement": "Plant response rating, Corn", "setting": "corn (Zea mays); [13]", "value": 10}, {"measurement": "Corn plant response rating (0 to 100 scale)", "setting": "corn (Zea mays); [14]", "value": 15}, {"measurement": "Plant response rating, Corn", "setting": "corn (Zea mays); [16]", "value": 25}, {"measurement": "Plant response rating, Corn", "setting": "corn (Zea mays); [15]", "value": 25}, {"measurement": "Plant response rating, Foxtail, Giant", "setting": "[8]; [13]", "value": 65}, {"measurement": "Foxtail, Giant plant response rating (0 to 100 scale)", "setting": "[8]; [14]", "value": 75}, {"measurement": "Plant response rating, Foxtail, Giant", "setting": "[8]; [16]", "value": 80}, {"measurement": "Plant response rating, Foxtail, Giant", "setting": "[8]; [15]", "value": 95}, {"measurement": "Plant response rating, Barley", "setting": "[9]; [13]", "value": 0}, {"measurement": "Barley plant response rating (0 to 100 scale)", "setting": "[9]; [14]", "value": 0}, {"measurement": "Plant response rating, Barley", "setting": "[9]; [16]", "value": 0}, {"measurement": "Plant response rating, Barley", "setting": "[9]; [15]", "value": 0}, {"measurement": "Plant response rating, Canarygrass", "setting": "[10]; [13]", "value": 0}, {"measurement": "Canarygrass plant response rating (0 to 100 scale)", "setting": "[10]; [14]", "value": 0}, {"measurement": "Plant response rating, Canarygrass", "setting": "[10]; [16]", "value": 5}, {"measurement": "Plant response rating, Canarygrass", "setting": "[10]; [15]", "value": 5}, {"measurement": "Windgrass plant response rating (0 to 100 scale)", "setting": "[11]; [14]", "value": 45}, {"measurement": "Plant response rating, Windgrass", "setting": "[11]; [16]", "value": 65}, {"measurement": "Plant response rating, Chickweed", "setting": "[12]; [13]", "value": 85}, {"measurement": "Chickweed plant response rating (0 to 100 scale)", "setting": "[12]; [14]", "value": 95}, {"measurement": "Plant response rating, Chickweed", "setting": "[12]; [16]", "value": 98}, {"measurement": "Plant response rating, Chickweed", "setting": "[12]; [15]", "value": 100}]}]}
